Assay results reported in the supplement of paper PMC11208160.

Assay: recombinant barcode read abundance after kanamycin selection (control-corrected) (log10(CPM+1)); higher = more efficient recombination; sequences stand for … in AGTGCAGAGAAAATCGGCCAGTTTTCTCTGCCTGCAGTCCGCATGCCGT…ATTTATGCAGCGGACTGCCTTTCTCCCAAAGTGATAAACCGGACAGTATCATGGACCGGTTTTCCCGGTAATCCGTATTTGCAAGGTTGGTTTCACT; site = the 11-nt target
Method in brief: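 Duplicate cultures were plated either on chloramphenicol/ampicillin LB agar, serving as control, or on chloramphenicol/ampicillin/kanamycin with 0.1 mM IPTG. These came from a pooled E. coli library co-electroporated with a donor plasmid, each member pairing a target with an IS621 bridge RNA target-binding loop. Recombination efficiency equals averaged, control-corrected counts per million of recombinant-junction barcodes. It is listed as log10(CPM+1).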

GCGCGACCGTGGGTTCTAACCTGTTGCTTAG [GCGCGACCTAA_LTGcore_CG_RTGcore_CT] (site GCGCGACCTAA) (LTG core: CG, RTG core: CT)
recombinant barcode read abundance (log10): 0.217

GCGCGACCGTGGGTTCTAACCTGTTGCTTCG [GCGCGACCTAA_LTGcore_CG_RTGcore_CG] (site GCGCGACCTAA) (LTG core: CG, RTG core: CG)
recombinant barcode read abundance (log10): 0.282

GCGCGACCTTGGGTTCTAACCTGTTGCTTGG [GCGCGACCTAA_LTGcore_CT_RTGcore_CC] (site GCGCGACCTAA) (LTG core: CT, RTG core: CC)
recombinant barcode read abundance (log10): 0

GCGCGACCTTGGGTTCTAACCTGTTGCTTTA [GCGCGACCTAA_LTGcore_CT_RTGcore_TA] (site GCGCGACCTAA) (LTG core: CT, RTG core: TA)
recombinant barcode read abundance (log10): 0.265

GCGCGACCTTGGGTTCTAACCTGTTGCTTTG [GCGCGACCTAA_LTGcore_CT_RTGcore_CA] (site GCGCGACCTAA) (LTG core: CT, RTG core: CA)
recombinant barcode read abundance (log10): 0.102

GCGCGACGGTGGGTTCTAACCTGTTGCTTCC [GCGCGACCTAA_LTGcore_GG_RTGcore_GG] (site GCGCGACCTAA) (LTG core: GG, RTG core: GG)
recombinant barcode read abundance (log10): 0.315

GCGCGACGTTGGGTTCTAACCTGTTGCTTAG [GCGCGACCTAA_LTGcore_GT_RTGcore_CT] (site GCGCGACCTAA) (LTG core: GT, RTG core: CT)
recombinant barcode read abundance (log10): 0.0314

GCGCGACTATGGGTTCTAACCTGTTGCTTTA [GCGCGACCTAA_LTGcore_TA_RTGcore_TA] (site GCGCGACCTAA) (LTG core: TA, RTG core: TA)
recombinant barcode read abundance (log10): 0.118

GCGCGACTCTGGGTTCTAACCTGTTGCTTGA [GCGCGACCTAA_LTGcore_TC_RTGcore_TC] (site GCGCGACCTAA) (LTG core: TC, RTG core: TC)
recombinant barcode read abundance (log10): 0.228

GCGGGACAATGGGTTCTAACCTGTTGCCTAG [GCGGGACCTAG_LTGcore_AA_RTGcore_CT] (site GCGGGACCTAG) (LTG core: AA, RTG core: CT)
recombinant barcode read abundance (log10): 0.227

GCGGGACACTGGGTTCTAACCTGTTGCCTAG [GCGGGACCTAG_LTGcore_AC_RTGcore_CT] (site GCGGGACCTAG) (LTG core: AC, RTG core: CT)
recombinant barcode read abundance (log10): 0.121

GCGGGACATTGGGTTCTAACCTGTTGCCTAT [GCGGGACCTAG_LTGcore_AT_RTGcore_AT] (site GCGGGACCTAG) (LTG core: AT, RTG core: AT)
recombinant barcode read abundance (log10): 0.11

GCGGGACCTTGGGTTCTAACCTGTTGCCTCA [GCGGGACCTAG_LTGcore_CT_RTGcore_TG] (site GCGGGACCTAG) (LTG core: CT, RTG core: TG)
recombinant barcode read abundance (log10): 0.682

GCGGGACCTTGGGTTCTAACCTGTTGCCTGG [GCGGGACCTAG_LTGcore_CT_RTGcore_CC] (site GCGGGACCTAG) (LTG core: CT, RTG core: CC)
recombinant barcode read abundance (log10): 0.0406

GCGGGACGATGGGTTCTAACCTGTTGCCTTC [GCGGGACCTAG_LTGcore_GA_RTGcore_GA] (site GCGGGACCTAG) (LTG core: GA, RTG core: GA)
recombinant barcode read abundance (log10): 0.2

GCGGGACGGTGGGTTCTAACCTGTTGCCTAG [GCGGGACCTAG_LTGcore_GG_RTGcore_CT] (site GCGGGACCTAG) (LTG core: GG, RTG core: CT)
recombinant barcode read abundance (log10): 0.14

GCGGGACGTTGGGTTCTAACCTGTTGCCTAG [GCGGGACCTAG_LTGcore_GT_RTGcore_CT] (site GCGGGACCTAG) (LTG core: GT, RTG core: CT)
recombinant barcode read abundance (log10): 0.0984

GGACACCACTGGGTTCTAACCTGTTGCCTAG [GGACACCCTAG_LTGcore_AC_RTGcore_CT] (site GGACACCCTAG) (LTG core: AC, RTG core: CT)
recombinant barcode read abundance (log10): 0.0688

GGACACCCCTGGGTTCTAACCTGTTGCCTGG [GGACACCCTAG_LTGcore_CC_RTGcore_CC] (site GGACACCCTAG) (LTG core: CC, RTG core: CC)
recombinant barcode read abundance (log10): 0.128

GGACACCCTTGGGTTCTAACCTGTTGCCTCA [GGACACCCTAG_LTGcore_CT_RTGcore_TG] (site GGACACCCTAG) (LTG core: CT, RTG core: TG)
recombinant barcode read abundance (log10): 0.858

GGACACCGATGGGTTCTAACCTGTTGCCTTC [GGACACCCTAG_LTGcore_GA_RTGcore_GA] (site GGACACCCTAG) (LTG core: GA, RTG core: GA)
recombinant barcode read abundance (log10): 0.0178

GGACACCGTTGGGTTCTAACCTGTTGCCTAG [GGACACCCTAG_LTGcore_GT_RTGcore_CT] (site GGACACCCTAG) (LTG core: GT, RTG core: CT)
recombinant barcode read abundance (log10): 0.32

GGCTCCCAGTGGGTTCTAACCTGTTGCGGCT [GGCTCCCCTCC_LTGcore_AG_RTGcore_AG] (site GGCTCCCCTCC) (LTG core: AG, RTG core: AG)
recombinant barcode read abundance (log10): 0.206

GGCTCCCCATGGGTTCTAACCTGTTGCGGTG [GGCTCCCCTCC_LTGcore_CA_RTGcore_CA] (site GGCTCCCCTCC) (LTG core: CA, RTG core: CA)
recombinant barcode read abundance (log10): 0.1

GGCTCCCCCTGGGTTCTAACCTGTTGCGGAG [GGCTCCCCTCC_LTGcore_CC_RTGcore_CT] (site GGCTCCCCTCC) (LTG core: CC, RTG core: CT)
recombinant barcode read abundance (log10): 0

GGCTCCCCTTGGGTTCTAACCTGTTGCGGCA [GGCTCCCCTCC_LTGcore_CT_RTGcore_TG] (site GGCTCCCCTCC) (LTG core: CT, RTG core: TG)
recombinant barcode read abundance (log10): 0.426

GGCTCCCCTTGGGTTCTAACCTGTTGCGGGT [GGCTCCCCTCC_LTGcore_CT_RTGcore_AC] (site GGCTCCCCTCC) (LTG core: CT, RTG core: AC)
recombinant barcode read abundance (log10): 0.0344

GGCTCCCTCTGGGTTCTAACCTGTTGCGGGA [GGCTCCCCTCC_LTGcore_TC_RTGcore_TC] (site GGCTCCCCTCC) (LTG core: TC, RTG core: TC)
recombinant barcode read abundance (log10): 0.238

GGCTCCCTGTGGGTTCTAACCTGTTGCGGAG [GGCTCCCCTCC_LTGcore_TG_RTGcore_CT] (site GGCTCCCCTCC) (LTG core: TG, RTG core: CT)
recombinant barcode read abundance (log10): 0.046

GGGAGCCACTGGGTTCTAACCTGTTGCTGAG [GGGAGCCCTCA_LTGcore_AC_RTGcore_CT] (site GGGAGCCCTCA) (LTG core: AC, RTG core: CT)
recombinant barcode read abundance (log10): 0

GGGAGCCAGTGGGTTCTAACCTGTTGCTGAG [GGGAGCCCTCA_LTGcore_AG_RTGcore_CT] (site GGGAGCCCTCA) (LTG core: AG, RTG core: CT)
recombinant barcode read abundance (log10): 0.493

GGGAGCCAGTGGGTTCTAACCTGTTGCTGCT [GGGAGCCCTCA_LTGcore_AG_RTGcore_AG] (site GGGAGCCCTCA) (LTG core: AG, RTG core: AG)
recombinant barcode read abundance (log10): 0.523

GGGAGCCCATGGGTTCTAACCTGTTGCTGTG [GGGAGCCCTCA_LTGcore_CA_RTGcore_CA] (site GGGAGCCCTCA) (LTG core: CA, RTG core: CA)
recombinant barcode read abundance (log10): 0.536

GGGAGCCCCTGGGTTCTAACCTGTTGCTGAG [GGGAGCCCTCA_LTGcore_CC_RTGcore_CT] (site GGGAGCCCTCA) (LTG core: CC, RTG core: CT)
recombinant barcode read abundance (log10): 1.11

GGGAGCCCGTGGGTTCTAACCTGTTGCTGCG [GGGAGCCCTCA_LTGcore_CG_RTGcore_CG] (site GGGAGCCCTCA) (LTG core: CG, RTG core: CG)
recombinant barcode read abundance (log10): 0.113

GGGAGCCCTTGGGTTCTAACCTGTTGCTGTC [GGGAGCCCTCA_LTGcore_CT_RTGcore_GA] (site GGGAGCCCTCA) (LTG core: CT, RTG core: GA)
recombinant barcode read abundance (log10): 0.0409

GGGAGCCGATGGGTTCTAACCTGTTGCTGAG [GGGAGCCCTCA_LTGcore_GA_RTGcore_CT] (site GGGAGCCCTCA) (LTG core: GA, RTG core: CT)
recombinant barcode read abundance (log10): 0.0418

GGGAGCCGCTGGGTTCTAACCTGTTGCTGGC [GGGAGCCCTCA_LTGcore_GC_RTGcore_GC] (site GGGAGCCCTCA) (LTG core: GC, RTG core: GC)
recombinant barcode read abundance (log10): 0.0416

GGGAGCCTATGGGTTCTAACCTGTTGCTGAG [GGGAGCCCTCA_LTGcore_TA_RTGcore_CT] (site GGGAGCCCTCA) (LTG core: TA, RTG core: CT)
recombinant barcode read abundance (log10): 0.0839

GGGAGCCTATGGGTTCTAACCTGTTGCTGTA [GGGAGCCCTCA_LTGcore_TA_RTGcore_TA] (site GGGAGCCCTCA) (LTG core: TA, RTG core: TA)
recombinant barcode read abundance (log10): 0.157

GGGCGGAACTGGGTTCTAACCTGTTGCGGAG [GGGCGGACTCC_LTGcore_AC_RTGcore_CT] (site GGGCGGACTCC) (LTG core: AC, RTG core: CT)
recombinant barcode read abundance (log10): 0.449

GGGCGGAAGTGGGTTCTAACCTGTTGCGGAG [GGGCGGACTCC_LTGcore_AG_RTGcore_CT] (site GGGCGGACTCC) (LTG core: AG, RTG core: CT)
recombinant barcode read abundance (log10): 0.0524

GGGCGGAAGTGGGTTCTAACCTGTTGCGGCT [GGGCGGACTCC_LTGcore_AG_RTGcore_AG] (site GGGCGGACTCC) (LTG core: AG, RTG core: AG)
recombinant barcode read abundance (log10): 0.193

GGGCGGACCTGGGTTCTAACCTGTTGCGGGG [GGGCGGACTCC_LTGcore_CC_RTGcore_CC] (site GGGCGGACTCC) (LTG core: CC, RTG core: CC)
recombinant barcode read abundance (log10): 0.132

GGGCGGACTTGGGTTCTAACCTGTTGCGGAA [GGGCGGACTCC_LTGcore_CT_RTGcore_TT] (site GGGCGGACTCC) (LTG core: CT, RTG core: TT)
recombinant barcode read abundance (log10): 1.23
